According to patent US9265789B2, “Targeting CLPTM1L by RNA interference for treatment and prevention of cancer” (The Medical College of Wisconsin, Inc., priority 2013, dated 2016):

Assays:
3T3 mouse fibroblasts = assay: Transformation assay (morphology, foci) in Ras-transfected 3T3 fibroblasts; type: cell-based
Method: (§1) NIH3T3 cells acquired within the last 6 months from ATCC were cultured in DMEM 10% FBS to 80% confluence before co-transfecting with the indicated expression and shRNA vectors using Lipofectamine LTX (Invitrogen, Carlsbad, Calif.). Cells were split, allowed to attach and placed on puromycin selection for 3 days or until mock transfected cells were dead. Cells were plated at the indicated densities and fed as needed. For whole plate staining, cells were fixed in cold methanol and stained with crystal violet. For anchorage independent growth, cell were suspended in 0.4% agarose in complete growth media and plate over 0.8% bottom agar at 10,000 cells per well (H-Ras) or 20,000 cells per well (K-Ras) of a six-well tissue culture dish in triplicate. Cells were fed twice a week over 4 weeks in culture, and colonies were stained using cell staining reagent and protocol from Millipore's Cell Transformation Detection Assay. Images of wells were captured and analyzed by Image J software to count colonies. P-values were determined using a two-tailed Student's T-Test.

CLPTM1L transcript = CLPTM1L transcript knockdown by RT-quantitative real-time PCR in Spon8 cells; type: cell-based; settings: Spon8 mouse lung tumor cells; qPCR normalized to beta-Actin
Method: Spon8 cells were cultured in RPMI1640 plus 2% FBS (Invitrogen, Carlsbad, Calif.). Cells were transduced with lentiviral short-hairpin RNA (shRNA) vectors based on the pLKO.1 vector and designed to specifically target human CLPTM1L transcript (Sigma, St. Louis). Empty vector or vector knocking down CLPTM1L transcript were first packaged in 293T cells (Orbigen, San Diego, Calif.) by transfection with helper plasmids using Lipofectamine LTX (Invitrogen, Carlsbad, Calif.) and then transduced into Spon 8 cells with 8 μg/ml Polybrene (Sigma, St. Louis, Mo.). Media was replaced 24 hours after transduction, and cells were split 1:4 48 hours after transduction. […]
Patient matched tumor and tumor-adjacent normal RNA samples were obtained from the Tissue Procurement Core at Washington University in St. Louis under protocol approved by the Institutional Review Board at Washington University in St. Louis School of Medicine, Human Research Protection Office. […] Quantitative real-time PCR (qPCR) was conducted using the method as described previously (Chaparro, Wen et al. 2005). […] Quantitative RT-PCR assay was done using the SYBR Green PCR Master Mix (Applied Biosystems, Foster City, Calif.). […] Data were collected and analyzed with Stratagene Mx3000 software. […] Primer set efficiency and linearity was calculated, and normalization was performed in accordance with MIQE guidelines. […]

Bcl-xL [1] = assay: Western blotting for Bcl-xL in NIH3T3 cells with K-RasV12 expression; type: cell-based, mouse
Method: (§2) The indicated cell lines were treated with cisplatin at the indicated concentrations on 6-well plates for 72 hours. Cells were lysed with 100 μl of 1× NP40 lysis buffer containing proteinase inhibitors, sheared 10 times with a 28 gauge needle, spun at 16,000×g for 30 minutes, normalized by protein concentration as determined by the Bradford method, and the supernatant boiled for 5 minutes. 20 μl of normalized lysate was resolved by SDS-PAGE and immunoblotting analyzed with indicated antibodies. […] Quantitation of Western analyses of three independent cultures was done using Image J software available online from the National Institutes of Heath at rsbweb.nih.gov on the World Wide Web.
(§3) NIH3T3 cells acquired within the last 6 months from ATCC were cultured in DMEM 10% FBS to 80% confluence before co-transfecting with the indicated expression and shRNA vectors using Lipofectamine LTX (Invitrogen, Carlsbad, Calif.). […] Images of wells were captured and analyzed by Image J software to count colonies. P-values were determined using a two-tailed Student's T-Test.

[2] = tested on: oncogenic K-Ras driven lung tumors; assay: shRNA/K-Ras LSL-G12D/+ mouse model of lung tumorigenesis; type: in vivo; settings: for inhibition of tumor number / inhibition of tumor load: vs scrambled shRNA
Method: Mouse experiments were conducted as described by DuPage et al., Nat. Protoc. 4:1064 (2009), with the following modifications. pLKO.1 empty shRNA vector was obtained from Open Biosystems (Foster City, Calif.). Short hairpin inserts were designed to specifically target transcripts. Oligos were ordered from IDT (Coralville, Iowa). Complimentary oligos were heated to 95° C., cooled to room temperature overnight and ligated into digested pLKO.1. Validated constructs used in mouse experiments had the following short-hairpin sequences:
Vectors were modified by replacing the PGK promoter and puromycin resistance orf with the CMV promoter driving expression of CRE-GFP. CMV promoter was sub-cloned from pLenti CMV GFP Puro plasmid #17448 (Addgene) and CRE-GFP was sub-cloned from pCAG:CRE-GFP plasmid #13776 (Addgene). Virus was packaged in 293T cells and functionally titered by infecting 3TZ cells (LSL-LacZ), which express LacZ upon Cre recombinase activation. Mice were anesthetized with 200 μL Avertin ([…]). 10^^4 or 10^^3 active virus particles in 50 μl of phosphate buffered saline was delivered via intratracheal intubation using a 22-gauge IV catheter under general anesthesia to 10 transgenic mice per group (LSL-K-RasG12D (Mouse Models of Human Cancers Consortium (MMHCC) Strain 01XJ6, Jackson Laboratory #008179 (B6), #008180 (129)). […] The thoracic cavity was surgically opened to expose the lungs. The trachea was cannulated with a 22G catheter and lungs were inflated with Tellyesniczky's solution (70% ethanol, 2% formaldehyde, and 5% acetic acid) at 25 cm of pressure by gravity. Lungs were fixed overnight and the solution was exchanged to 70% ethanol the next day. Lungs were photographed, lobes were separated and cleaned. Tumors were counted and measured with digital calipers. A cutoff for visible tumors of 0.2 mm diameter was used. Tumor volume was determined by the following formula: A=4/3πr^3. P-values were determined using a two-tailed Student's T-Test.

[3] = tested on: Spon8 mouse lung tumor cells; assay: Viability assay (MTS) after cisplatin treatment; type: cell-based; settings: 20 μM cisplatin for 48 hours; compared to vector and sh1; p=9.6E-6
Method: Cells stably expressing shRNA vectors as described above were seeded onto 12-well tissue culture dishes at equal densities of approximately 50% in triplicate. After attachment overnight followed by 48 hours of treatment with the indicated concentrations of cisplatin (Sigma, St. Louis, Mo.) dissolved in media. DMSO concentrations in culture media were kept consistent and were at or below 0.08%. Cell viability was measured by Cell Titer 96 Aqueous One Solution Cell Proliferation Assay (MTS) in triplicate. P-values were determined by one-tailed Student's T-Test.

[4] = tested on: Ras transformed 3T3 cells; assay: Soft agar anchorage independent growth assay; type: cell-based, mouse
Method: as §1

[5] = tested on: phosphorylated (T308) Akt; assay: Western blotting for phosphorylated (T308) Akt in NIH3T3 cells with K-RasV12 expression; type: cell-based, mouse; settings: NIH3T3 cells expressing K-RasV12, CLPTM1L stably depleted
Method: as §2, §3

Bcl-xL [6] = assay: Bcl-xL protein accumulation by western blot in Spon8 cells; type: cell-based, mouse
Method: The indicated cell lines were treated with cisplatin at the indicated concentrations on 6-well plates for 72 hours. Cells were lysed with 100 μl of 1× NP40 lysis buffer containing proteinase inhibitors, sheared 10 times with a 28 gauge needle, spun at 16,000×g for 30 minutes, normalized by protein concentration as determined by the Bradford method, and the supernatant boiled for 5 minutes. 20 μl of normalized lysate was resolved by SDS-PAGE and immunoblotting analyzed with indicated antibodies. The following antibodies were used: rabbit anti-CLPTM1L (Novus Biologicals, Littleton, Colo.), mouse anti-Actin (Santa Cruz Biotechnology, Santa Cruz, Calif.), mouse anti-Bcl2 clone 124 (Dako, Carpinteria, Calif.), rabbit anti-Bax #2774 (Cell Signaling, Boston, Mass.), mouse anti-p53 (Ab-1) (Oncogene, San Diego, Calif.), Bcl-xL-rabbit Bcl2L1 (AbCam, Cambridge, Mass.), rabbit anti-H-Ras (Novus Biologicals, Littleton, Colo.), mouse anti-K-Ras(BD Transduction Labs, Franklin, N.J.), anti-Akt(Cell Signaling, Boston, Mass.), antipAKT(Thr308)(Cell Signaling, Boston, Mass.), rabbit anti-PIK3C3 (Cell Signaling, Boston, Mass.), rabbit anti-BAD(AbCam, Cambridge, Mass.). Quantitation of Western analyses of three independent cultures was done using Image J software available online from the National Institutes of Heath at rsbweb.nih.gov on the World Wide Web.

TERT transcript = TERT transcript knockdown in Spon8 cells; type: cell-based; settings: Spon8 mouse lung tumor cells
[7] = high dose group 10^4 functional particles intratracheal, 24 weeks
[8] = low dose group 10^3 particles, 28 weeks post-infection

Molecule: shCLP168m: shRNA targeting CLPTM1L, mature sense strand AACTGCATCCAGCCCTATCTG (SEQ ID NO: 4), pLKO.1 lentiviral vector
- transformed phenotype (foci) on stable co-transfection with H-RasV12 or K-RasV12 (3T3 mouse fibroblasts): no transformed foci were observed
- morphological changes with shRNA alone compared to vector controls (3T3 mouse fibroblasts; no Ras): did not demonstrate morphological changes
- knockdown of CLPTM1L at the transcript level (CLPTM1L transcript): 80%
- K-RasV12 induced elevation of Bcl-xL (Bcl-xL [1]; NIH3T3 cells expressing K-RasV12, CLPTM1L stably depleted): ablated
- Bcl-xL expression with loss of CLPTM1L (Bcl-xL [1]; NIH3T3 mouse fibroblasts, western blotting): decrease in Bcl-xL expression
- average tumor load [2, 7]: 3.4 mm^3
- average tumor number [2, 7]: 46 tumors per mouse
- inhibition of tumor number ([2]; high dose group, p=0.02): 60%
- inhibition of tumor load ([2]; high dose group, p=0.03): 74%
- average tumor load [2, 8]: 0.01 mm^3
- average tumor number [2, 8]: 0.14 tumors
- inhibition of tumor load ([2]; low dose group, p<0.002): 98%
- inhibition of tumor number ([2]; low dose group, p<0.004): 98%
- sensitivity to cisplatin-induced killing (MTS viability) [3]: increased sensitivity to cisplatin
- average colonies per well in soft agar ([4]; H-RasV12 expressing 3T3 cells, 10,000 cells per well, control 18 colonies, p<0.03): one
- inhibition of soft agar colony formation ([4]; K-RasV12 transformed 3T3 cells, 20,000 cells per well, control 56 colonies per well, p<0.02): 47%
- K-RasV12 induced elevation of phospho-Akt [5]: ablated
- Bcl-xL expression upon CLPTM1L depletion (Bcl-xL [6]): concurrently reduced

B1: shTERT1: lentiviral shRNA vector targeting TERT (oligos SEQ ID NO: 28/29), used as additional control (nucleic acid)
sense: CCGGAAGTCTGCCGTTGCCCAAGAGCTCGAGCTCTTGGGCAACGGCAGACTTTTTTT
antisense: AATTAAAAAAACTGCATCCAGCCCTATCTGCTCGAGCAGATAGGGCTGGATGCAGTT
- knockdown of TERT at the transcript level (TERT transcript): 50%
- average tumor load [2, 7]: 10.2 mm^3
- average tumor number [2, 7]: 122 tumors per mouse
- tumor number and load compared with scrambled control ([2]; high dose group, p=0.58): statistically similar to the control group
- average tumor load [2, 8]: 0.41 mm^3
- average tumor number [2, 8]: 5 tumors
